The source of these data is US10888575B2, “Combination comprising zidovudine and a carbapenem” (HELPERBY THERAPEUTICS LIMITED, priority 2016, dated 2021).

Like-named read-outs stand apart in the source and are kept apart here.

Assay type in all cases: cell-based
Experiment [1] concerns log phase NDM-1 Klebsiella pneumoniae subsp. pneumoniae (BAA2472). In words: chequerboard method, zidovudine and meropenem. Also noted: scale not given here. On the procedure:
The chequerboard method used in Example 1 followed the protocols detailed in Antimicrob Chemo (2013) 68, 374-384.
Log phase growth of NDM-1 Klebsiella pneumoniae subsp. pneumoniae was carried out as described in the art. Zidovudine and meropenem were obtained from commercially available sources. The effects of the combination of the present invention were examined by calculating the fractional inhibitory concentration index (FICI) of each combination, as follows:
(MIC of drug A, tested in combination)/(MIC of drug A, tested alone)+(MIC of drug B, tested in combination)/(MIC of drug B, tested alone).
The interaction of the combination was defined as showing synergy if the FICI was ≤0.5, no interaction if the FICI was >0.5 but <4.0 and antagonism if the FICI was >4.0.

For experiment [2], the system named is log phase NDM-1 Escherichia coli (BAA2469). In words: time-kill, zidovudine and meropenem. Particulars: 24 hours. The protocol:
(§1) As described hereinabove, time-kill methods are another accepted test for ascertaining the presence or absence of synergy, and involve comparing the dynamic effect of a drug combination with each drug alone when assessing the effect on bacterial log or stationary-growth over time.
(§2) • 1. Bacterial strain used: BAA2471 or BAA2469 strain of Escherichia coli • 2. Growth of bacteria: Log phase growth of BAA2471 or BAA2469 was carried out according to known methods in the art, e.g. SOP R-005-00 Log Phase Growth of Bacteria. • 3. Compound preparation: zidovudine and mereopenem were both obtained from commercial sources (e.g. Sigma-Aldrich). • 4. The overnight culture was diluted with nutrient broth (Oxoid) to 10^7 CFU/ml and 280 μl and 290 μl of the culture was added to each combination well and drug respectively, to make the final concentration of 300 μl. • 5. Incubation of the compounds with the bacterial suspension was carried out for 24 hours. At 0, 2, 4, 7 and 24 hours, CFU counts were performed to measure the kill effects of the drug combination. Results and Discussion

Experiment [3] relates to log phase NDM-1 Escherichia coli (BAA2471). Kind of experiment: time-kill, zidovudine and meropenem. Particulars: 24 hours. On the procedure:
as §1, §2

Experiment [4] has as its system log phase NDM-1 Klebsiella pneumoniae (BAA2470). In words: chequerboard method, zidovudine, meropenem and colistimethate sodium. Also noted: chequerboard reading: scale not given here. The protocol: The chequerboard method used in Example 1 was followed, according to the protocols detailed in Antimicrob Chemo (2013) 68, 374-384. The bacterial strain of NDM-1 Klebsiella pneumoniae was BAA2470. Log phase growth of BAA2470 was carried out as described in the art. Zidovudine, meropenem and colistimethate sodium were obtained from commercially available sources. The effects of the triple combination of the present invention were examined by calculating the MIC for each drug alone and in combination.

For experiment [5], the system named is log phase NDM-1 K. pneumoniae subsp. pneumoniae (BAA2470). Kind of experiment: time-kill, zidovudine, meropenem and CMS. The protocol:
as §2, with “BAA2470” for “BAA2471 or BAA2469”, “K. pneumoniae subsp. pneumoniae” for “Escherichia coli”, “zidovudine, mereopenem” for “zidovudine”, “colistimethate sodium” for “mereopenem”, “were” for “were both”, “combination.” for “combination. Results and Discussion”

Setting [6] is: zidovudine added at 0.25 μg/ml to the meropenem and CMS combination.

For `Cc1cn([C@H]2C[C@H](N=[N+]=[N-])[C@@H](CO)O2)c(=O)[nH]c1=O` [zidovudine, 1-[(2R,4S, 5S)-4-Azido-5-(hydroxymethyl)oxolan-2-yl]-5-methylpyrimidine-2,4-dione], the chequerboard reading in experiment [1] (zidovudine 0.5, meropenem 0) was 0.16; in experiment [1] (zidovudine 1, meropenem 0) it was 0.22; in experiment [1] (zidovudine 2, meropenem 0), 0.10; in experiment [1] (zidovudine 4, meropenem 0) it was 0.23; in experiment [1] (zidovudine 8, meropenem 0) it was 0.23; in experiment [1] (zidovudine 16, meropenem 0), 0.04. Moreover, the chequerboard reading in experiment [1] (zidovudine 32, meropenem 0) is 0.26; in experiment [4] (meropenem 0, CMS 0, zidovudine 0.25 μg/ml), 0.31; in experiment [4] (meropenem 0, CMS 0, zidovudine 0.50 μg/ml) it was 0.17; in experiment [4] (meropenem 0, CMS 0, zidovudine 1 μg/ml), 0.11; in experiment [4] (meropenem 0, CMS 0, zidovudine 2 μg/ml), 0.08. Also, the time-kill effect entry in experiment [2] (zidovudine alone 16 mg/L) and in experiment [3] (zidovudine alone 32 mg/L) was “little or no effect” throughout. The “kill of the bacterium” value in experiment [5] (zidovudine alone 16 μg/ml, at 2 hours, then growth occurred) was “one”.

In general, MIC refers to the smallest concentration in the dilution series that meets the test's criterion for growth inhibition. In the case of `C[C@@H](O)[C@H]1C(=O)N2C(C(=O)O)=C(S[C@@H]3CN[C@H](C(=O)N(C)C)C3)[C@H](C)[C@H]12` [meropenem], the chequerboard reading is reported as 0.40 in experiment [1] (zidovudine 0, meropenem 0.25); 0.41 in experiment [1] (zidovudine 0, meropenem 0.5); 0.45 in experiment [1] (zidovudine 0, meropenem 1); 0.35 in experiment [1] (zidovudine 0, meropenem 2); 0.34 in experiment [1] (zidovudine 0, meropenem 4); 0.44 in experiment [1] (zidovudine 0, meropenem 8). For the same compound, the chequerboard reading is reported as 0.44 in experiment [1] (zidovudine 0, meropenem 16); 0.25 in experiment [1] (zidovudine 0, meropenem 32); 0.21 in experiment [1] (zidovudine 0, meropenem 64); 0.20 in experiment [1] (zidovudine 0, meropenem 128); 0.05 in experiment [1] (zidovudine 0, meropenem 256); 0.69 in experiment [4] (meropenem 8, CMS 0, zidovudine 0 μg/ml). Further, the chequerboard reading in experiment [4] (meropenem 16, CMS 0, zidovudine 0 μg/ml) was 0.70; in experiment [4] (meropenem 32, CMS 0, zidovudine 0 μg/ml), 0.63; in experiment [4] (meropenem 64, CMS 0, zidovudine 0 μg/ml), 0.55; in experiment [4] (meropenem 128, CMS 0, zidovudine 0 μg/ml), 0.36; in experiment [4] (meropenem 256, CMS 0, zidovudine 0 μg/ml) it was 0.05; in experiment [4] (meropenem 512, CMS 0, zidovudine 0 μg/ml) it was 0.05. Besides, the time-kill effect entry in experiment [2] (meropenem alone 8 mg/L) and in experiment [3] (meropenem alone 256 mg/L) was “little or no effect” each time. Also, the MIC is 256 µg/mL in experiment [4] (Klebsiella pneumoniae, BAA2470); 64 µg/mL in experiment [4] (Klebsiella pneumoniae, BAA2470, zidovudine added at 0.5 μg/ml to the meropenem and CMS combination, read-out: MIC); 16 µg/mL in experiment [4] (Klebsiella pneumoniae, BAA2470, zidovudine added at 1 μg/ml to the meropenem and CMS combination, read-out: MIC); “remained the same” in experiment [4] (setting [6]). In experiment [5] (meropenem alone 64 μg/ml, at 4 hours, followed by a regrowth), the “kill of the bacterium” value is reported as “about 3 logs”.

As to colistimethate sodium, the chequerboard reading in experiment [4] (meropenem 0, CMS 0.031, zidovudine 0 μg/ml) was 0.66; in experiment [4] (meropenem 0, CMS 0.063, zidovudine 0 μg/ml) it was 0.61; in experiment [4] (meropenem 0, CMS 0.125, zidovudine 0 μg/ml), 0.58; in experiment [4] (meropenem 0, CMS 0.25, zidovudine 0 μg/ml) it was 0.50; in experiment [4] (meropenem 0, CMS 0.5, zidovudine 0 μg/ml), 0.51; in experiment [4] (meropenem 0, CMS 1, zidovudine 0 μg/ml) it was 0.47. In addition, the chequerboard reading in experiment [4] (meropenem 0, CMS 2, zidovudine 0 μg/ml) came out at 0.46; in experiment [4] (meropenem 0, CMS 4, zidovudine 0 μg/ml) it was 0.42; in experiment [4] (meropenem 0, CMS 8, zidovudine 0 μg/ml), 0.42; in experiment [4] (meropenem 0, CMS 16, zidovudine 0 μg/ml) it was 0.23; in experiment [4] (meropenem 0, CMS 32, zidovudine 0 μg/ml) it was 0.05. In addition, the MIC in experiment [4] (without zidovudine) is 32 µg/mL; in experiment [4] (setting [6]), 8 µg/mL; in experiment [4] (zidovudine added at 0.5 μg/ml to the meropenem and CMS combination), 0.5 µg/mL; in experiment [4] (zidovudine added at 1 μg/ml to the meropenem and CMS combination) it was 0.25 µg/mL. In addition, the time-kill effect entry in experiment [5] (CMS alone 4 ug/ml) is recorded as “no effect”.
